# Values joined by “and” are separate entries in the source; they are usually repeats but may differ in a detail not shown here. Equal values may be shown once.
# What was measured:
# [1] = system: corticosterone-treated mice; experiment: forced swim test, chronic administration, corticosterone model; assay type: in vivo; conditions: for effect on corticosterone-induced increase in immobility: 21 days
# Method: The dose and route of administration of corticosterone was based on studies performed by Zhao and colleagues. Thirty minutes before, corticosterone injection mice were given (i.p.) saline, HBK-14 (1.25 or 2.5 mg/kg), HBK-15 (0.625 or 1.25 mg/kg), or fluoxetine (10 mg/kg) (Fig. 1b). Control mice received (i.p.) saline and 30 min later saline containing 0.1% dimethyl sulfoxide (DMSO) and 0.1% Tween-80 (s.c.). The experimental groups consisted of eight randomly selected animals. After the end of the procedure, animals were tested in the sucrose preference test, forced swim test, elevated plus maze test, and spontaneous locomotor activity test. Following behavioral testing, rodents were scarified and their hippocampi collected for biochemical analysis. Forced swim test was performed according to the method described by Porsolt and colleagues and previously described. Mice were placed individually for 6 min in glass cylinders (height 25 cm, diameter 10 cm) containing […] (23–25 °C). The total time of immobility was recorded during the final 4 min of the test. The experiments were recorded and scored using aLab.io software by a trained observer blind to the treatments.
# [2] = system: corticosterone-treated mice; experiment: sucrose preference test, chronic administration, corticosterone model; assay type: in vivo; conditions: for effect on corticosterone-induced decrease in sucrose intake: 21 days
# Method: The dose and route of administration of corticosterone was based on studies performed by Zhao and colleagues. Thirty minutes before, corticosterone injection mice were given (i.p.) saline, HBK-14 (1.25 or 2.5 mg/kg), HBK-15 (0.625 or 1.25 mg/kg), or fluoxetine (10 mg/kg) (Fig. 1b). Control mice received (i.p.) saline and 30 min later saline containing 0.1% dimethyl sulfoxide (DMSO) and 0.1% Tween-80 (s.c.). The experimental groups consisted of eight randomly selected animals. After the end of the procedure, animals were tested in the sucrose preference test, forced swim test, elevated plus maze test, and spontaneous locomotor activity test. Following behavioral testing, rodents were scarified and their hippocampi collected for biochemical analysis. The sucrose preference test was conducted according to the slightly modified methods described by Liu and colleagues and Filho and colleagues. The test was performed before and after the administration of corticosterone. Briefly, before the proper test, mice were housed singly and given 72 h training to acclimate to the test procedures. In the first 24 h, access ad libitum to two feeding bottles of 1% (w/v) sucrose solution was given to each mouse. After 24 h, one bottle was replaced with tap water for the next 24 h. Then, mice were deprived of water and food for the third 24 h. On the test day, the weight of each bottle (1% sucrose solution and tap water) was recorded. Test animals were then given the bottles of 1% sucrose and water for 24 h. The consumed liquid weight was measured based on the weight of each bottle of fluids after sucrose preference test minus the original starting weight. The percentage of sucrose intake was calculated using the following equation: %Sucrose intake=Sucrose intake/Sucrose intake+water intake⋅100%
# [3] = system: BDNF level in the hippocampus; experiment: BDNF level in the hippocampus (ELISA), chronic administration; assay type: in vivo, mice; conditions: for effect on corticosterone-induced decrease in BDNF level in the hippocampus: 21 days
# Method: The doses and route of administration of the studied compounds were based on our previous experiments. […] Mice were injected with corticosterone (s.c., 20 mg/kg) at random times during the light phase for 21 consecutive days (Fig. 1b). The dose and route of administration of corticosterone was based on studies performed by Zhao and colleagues. Thirty minutes before, corticosterone injection mice were given (i.p.) saline, HBK-14 (1.25 or 2.5 mg/kg), HBK-15 (0.625 or 1.25 mg/kg), or fluoxetine (10 mg/kg) (Fig. 1b). Control mice received (i.p.) saline and 30 min later saline containing 0.1% dimethyl sulfoxide (DMSO) and 0.1% Tween-80 (s.c.). The experimental groups consisted of eight randomly selected animals. After the end of the procedure, animals were tested in the sucrose preference test, forced swim test, elevated plus maze test, and spontaneous locomotor activity test. Following behavioral testing, rodents were scarified and their hippocampi collected for biochemical analysis. After the behavioral assessments, mice were sacrificed, and their brains were rapidly removed and chilled in an ice-cold saline solution. The hippocampi were dissected on a cold plate, frozen, and stored at −80 °C until assay. On the day of experiments, tissues were thawed on ice and homogenized (1:9 w/v) in phosphate-buffered saline (4 °C) and protease inhibitor cocktail was added. The 10% homogenates were prepared and homogenized for 30 s with TissueRuptor homogenizer. The homogenized tissues were centrifuged (2500×g at 4 °C for 20 min), and the supernatants were collected for further assays. Protein concentrations of BDNF and NGF in homogenates from hippocampi were determined using the enzyme-linked immunosorbent assay (ELISA) kits (BDNF: DZE201020014, SunRed Biotechnology Company; NGF: MBS825100, MyBioSource) according to the manufacturer’s instructions. […] The samples were analyzed in duplicates, and the mean concentrations were calculated. […] The intensity of the color was read at 450 nm. Absorbance was measured in a multifunction plate reader (POLARstar Omega, BMG Labtech, Germany). […]
# [4] = system: corticosterone-treated mice; experiment: spontaneous locomotor activity, single administration; assay type: in vivo; conditions: 4 min
# Method: Mice were injected with corticosterone (s.c., 20 mg/kg) at random times during the light phase for consecutive 21 days (Fig. 1c). The dose and route of administration of corticosterone were based on studies performed by Zhao and colleagues. […] Control mice received (i.p.) saline. The experimental groups consisted of eight randomly selected animals. We chose the dose of HBK-15 that was active in the chronic experiments (i.e., 1.25 mg/kg). The dose of ketamine was based on the studies performed by Pazini and colleagues. Animals were tested in the forced swim test and spontaneous locomotor activity test. After behavioral testing, mice were scarified and their hippocampi collected for biochemical analysis.
# The locomotor activity was performed as previously described. Locomotor activity was recorded individually for each mouse using activity cages made of clear Perspex (40 cm × 40 cm × 31 cm, Activity Cage 7441, Ugo Basile, Italy). The cages were supplied with I.R. horizontal beam emitters connected to a counter for the recording of light-beam interruptions. Each mouse was placed in a cage for a 30-min habituation period. After that time, the number of crossings of photobeams was measured for 6 min (chronic studies) or for 4 min (acute experiments; i.e., the time equal to the observation period in the forced swim test). The cages were disinfected with 70% ethanol after each mouse.
# [5] = corticosterone 20 mg/kg s.c. 21 days + saline
structure (smiles),measurement,setting,value
"CNCCC(Oc1ccc(C(F)(F)F)cc1)c1ccccc1 (centres unmarked) [fluoxetine, reference compound]",effect on corticosterone-induced increase in immobility,[1]; 10 mg/kg i.p.,prevented an increase in immobility
same,effect on corticosterone-induced decrease in sucrose intake,[2]; 10 mg/kg i.p.,prevented the decrease in sucrose intake
same,effect on corticosterone-induced decrease in BDNF level in the hippocampus,[3]; 10 mg/kg i.p.,protected corticosterone-treated mice from the decrease in the BDNF level
same,Number of crossings ± S.E.M,[4]; single i.p. in corticosterone-treated mice,231.9 ± 21.9
C[C@]12C[C@H](O)[C@H]3[C@@H](CCC4=CC(=O)CC[C@@]43C)[C@@H]1CC[C@@H]2C(=O)CO [corticosterone],increase in immobility vs control,[1]; [5],14% and 21%
same,decrease in percentage intake of sucrose solution vs control,[2]; [5],17% and 21%
same,decrease in BDNF level in the hippocampus vs control,[3]; [5],44.0%
same,Number of crossings ± S.E.M,[4]; [5],230.7 ± 15.8
"COc1ccccc1N1CCN(CCOCCOc2c(C)cccc2C)CC1.Cl [HBK-14, 1-[(2,6-Dimethylphenoxy)ethoxyethyl]-4-(2-methoxyphenyl)piperazine hydrochloride]",effect on corticosterone-induced increase in immobility,[1]; 1.25 or 2.5 mg/kg i.p.,inactive
same,effect on corticosterone-induced decrease in sucrose intake,[2]; 1.25 or 2.5 mg/kg i.p.,inactive
"COc1ccccc1N1CCN(CCOCCOc2c(C)cccc2Cl)CC1.Cl [HBK-15, 1-[(2-chloro-6-methylphenoxy)ethoxyethyl]-4-(2-methoxyphenyl)piperazine hydrochloride]",effect on corticosterone-induced increase in immobility,[1]; 1.25 mg/kg i.p.,prevented an increase in immobility
same,effect on corticosterone-induced decrease in sucrose intake,[2]; 1.25 mg/kg i.p.,prevented the decrease in sucrose intake
same,effect on corticosterone-induced decrease in BDNF level in the hippocampus,[3]; 1.25 mg/kg i.p.,protected corticosterone-treated mice from the decrease in the BDNF level
same,Number of crossings ± S.E.M,[4]; single 1.25 mg/kg i.p. in corticosterone-treated mice,245.3 ± 22.5

# — article PMC5884906, “Single Administration of HBK-15—a Triple 5-HT1A, 5-HT7, and 5-HT3 Receptor Antagonist—Reverses Depressive-Like Behaviors in Mouse Model of Depression Induced by Corticosterone” (Molecular Neurobiology, 2017)
